Here are results for 17 compounds from patent US10085990B2, “Tricyclic compounds as modulators of TNF-α synthesis and as PDE4 inhibitors” (vTv Therapeutics LLC, priority 2008, dated 2018).

This test relates to TNF synthesis in human PBMC. Kind of test: Human PBMC TNF Synthesis Assay. Format: cell-based. The conditions noted are these: LPS-stimulated human PBMC, overnight incubation, TNF ELISA; read-out: TNF inhib. As to the method: Human PBMC TNF Synthesis Assay
Human PBMC were obtained by from a healthy human donor leuko pak. Typically, all donors were pre-screened for STD, HIV and have been given a physical by a physician. One to two ampoules were thawed at 37° C. and then resuspended in 45 to 85 mL of RPMI+10% FBS to a final concentration of 2.5×10^6 cells/mL. Resuspended cells were filtered to remove any large clumps.
Prepare compounds for addition to cells: All compounds were DMSO stocks at 20 mM. Working stock for cell testing were prepared as 4× concentrated material in RPMI+10% FBS. Compounds were added to a polypropylene block and then diluted with the appropriate amount of RPMI+10% FBS. Typically 2.6 μL of 20 mM stock was diluted to 650 μL final volume to yield an 80 μM starting concentration in the stocks. RPMI was added to DMSO stock by pipetting into the tube or block. The compounds were then serial diluted with RPMI+10% FBS. The final DMSO concentrations were not greater than 0.5% in the assay.
Compounds were added to the cells as 4× working stock. 50 μL of compound was prepared above is added to the cells and re-equilibrated in a humidified 5% CO2 incubator at 37° C. for 30 minutes.
A stock of LPS was prepared using RPMI+10% FBS. To prepare the stock, 2.8 μL of LPS (5 mg/mL; Sigma Cat #L3024) was added to 35 mL of media. 50 μL of the LPS in media was added to the cells. Control cultures without LPS received only RPMI+10% FBS. After an overnight incubation at 37° C., the cell culture supernatant was harvested and stored in a polypropylene 96 well plate.
Samples were tested for TNF as per the manufacturer's instructions (TNF ELISA; R&D Systems, Cat #DY210). The samples were serially diluted with PBS+1% BSA to the appropriate dilution condition for the cell prep, typically a 1:4 or 1:6 dilution.

Structures are written as SMILES. Counter-ions that a name gives are not always drawn.

As to `CCNC(=O)N1CCC(n2c(=O)n(-c3cccc(Cl)c3)c(=O)c3cnc4c(OC)cccc4c32)CC1` [Example 97, 4-[3-(3-Chloro-phenyl)-7-methoxy-2,4-dioxo-3,4-dihydro-2H-pyrimido[5,4-c]quinolin-1-yl]-piperidine-1-carboxylic acid ethylamide], the IC50 amounted to 0.6 nM.
For `COc1cccc2c1ncc1c(=O)n(-c3cccc(Cl)c3)c(=O)n(C3CCN(C(=O)NC(C)C)CC3)c12` [Example 98, 4-[3-(3-Chloro-phenyl)-7-methoxy-2,4-dioxo-3,4-dihydro-2H-pyrimido[5,4-c]quinolin-1-yl]-piperidine-1-carboxylic acid isopropylamide] the value was 0.3 nM.
Consider `COc1cccc2c1ncc1c(=O)n(-c3ccccc3Cl)c(=O)n(C3CCC(C)CC3)c12` (centres unmarked) [Example 99, 3-(2-Chloro-phenyl)-7-methoxy-1-(4-methyl-cyclohexyl)-1H-pyrimido[5,4-c]quinoline-2,4-dione], for which the IC50 was determined as 20 nM.
Consider `COc1cccc2c1ncc1c(=O)n(-c3cccc(Cl)c3)c(=O)n([C@H]3CC[C@H](C(=O)O)CC3)c12` [Example 103, Trans-4-[3-(3-Chloro-phenyl)-7-methoxy-2,4-dioxo-3,4-dihydro-2H-pyrimido[5,4-c]quinolin-1-yl]-cyclohexanecarboxylic acid.hydrochloride], for which the IC50 turned out to be 1 nM.
For `COc1cccc2c1ncc1c(=O)n(-c3cccc(Cl)c3)c(=O)n(C3CCCCC3)c12` [Example 106, 3-(3-Chloro-phenyl)-1-cyclohexyl-7-methoxy-1H-pyrimido[5,4-c]quinoline-2,4-dione], the IC50 came to 4 nM.
For `COc1cccc2c1ncc1c(=O)n(-c3ccc4c(c3)OCO4)c(=O)n(C3CCN(C(=O)OC(C)(C)C)CC3)c12` [Example 107, 4-(3-Benzo[1,3]dioxol-5-yl-7-methoxy-2,4-dioxo-3,4-dihydro-2H-pyrimido[5,4-c]quinolin-1-yl)-piperidine-1-carboxylic acid tert-butyl ester] the value was 1 nM; for `COc1cccc2c1ncc1c(=O)n(-c3ccc4c(c3)OCO4)c(=O)n(C3CCNCC3)c12` [Example 108, 3-Benzo[1,3]dioxol-5-yl-7-methoxy-1-piperidin-4-yl-1H-pyrimido[5,4-c]quinoline-2,4-dione.dihydrochloride], 450 nM.
For `COc1cccc2c1ncc1c(=O)n(-c3cccc(SC)c3)c(=O)n(C3CCCC3)c12` [Example 111, 1-Cyclopentyl-7-methoxy-3-(3-methylsulfanyl-phenyl)-1H-pyrimido[5,4-c]quinoline-2,4-dione] the value was 74 nM; for `COc1cccc2c1ncc1c(=O)n(-c3cccc(S(C)(=O)=O)c3)c(=O)n(C3CCCC3)c12` [Example 112, 1-Cyclopentyl-3-(3-methanesulfonyl-phenyl)-7-methoxy-1H-pyrimido[5,4-c]quinoline-2,4-dione], 280 nM; for `COc1cccc2c1ncc1c(=O)n(-c3cccc(Cl)c3)c(=O)n([C@@H]3CCN(C(=O)OC(C)(C)C)C3)c12` [Example 113, 3-[(R)-3-(3-Chloro-phenyl)-7-methoxy-2,4-dioxo-3,4-dihydro-2H-pyrimido[5,4-c]quinolin-1-yl]-pyrrolidine-1-carboxylic acid tert-butyl ester], 0.3 nM.
Under `COc1cccc2c1ncc1c(=O)n(-c3cccc(Cl)c3)c(=O)n([C@@H]3CCNC3)c12` [Example 114, (R)-3-(3-Chloro-phenyl)-7-methoxy-1-pyrrolidin-3-yl-1H-pyrimido[5,4-c]quinoline-2,4-dione.dihydrochloride] stands 31 nM.
Take `COc1cccc2c1ncc1c(=O)n(-c3cccc(Cl)c3)c(=O)n([C@H]3CCN(C(=O)OC(C)(C)C)C3)c12` [Example 116, 3-[(S)-3-(3-Chloro-phenyl)-7-methoxy-2,4-dioxo-3,4-dihydro-2H-pyrimido[5,4-c]quinolin-1-yl]-pyrrolidine-1-carboxylic acid tert-butyl ester]: the IC50 amounted to 2 nM.
For the compound `COc1cccc2c1ncc1c(=O)n(-c3cccc(Cl)c3)c(=O)n([C@H]3CCNC3)c12` [Example 117, (S)-3-(3-Chloro-phenyl)-7-methoxy-1-pyrrolidin-3-yl-1H-pyrimido[5,4-c]quinoline-2,4-dione.dihydrochloride], the IC50 was 1000 nM.
Under `COc1cccc2c1ncc1c(=O)n(-c3ccc4c(c3)OCCO4)c(=O)n(C3CCCC3)c12` [Example 120, 1-Cyclopentyl-3-(2,3-dihydro-benzo[1,4]dioxin-6-yl)-7-methoxy-1H-pyrimido[5,4-c]quinoline-2,4-dione] stands 240 nM.
Consider `COC(=O)N1CCC(n2c(=O)n(-c3cccc(Cl)c3)c(=O)c3cnc4c(OC)cccc4c32)CC1` [Example 124, 4-[3-(3-Chloro-phenyl)-7-methoxy-2,4-dioxo-3,4-dihydro-2H-pyrimido[5,4-c]quinolin-1-yl]-piperidine-1-carboxylic acid methyl ester], for which the IC50 was determined as 50000 nM.
For `COc1cccc2c1ncc1c(=O)n(-c3cccc(Cl)c3)c(=O)n(CC3CCN(S(C)(=O)=O)CC3)c12` [Example 126, 3-(3-Chloro-phenyl)-1-(1-methanesulfonyl-piperidin-4-ylmethyl)-7-methoxy-1H-pyrimido[5,4-c]quinoline-2,4-dione] the value was 2 nM.
For `COc1cccc2c1ncc1c(=O)n(-c3cccc(Cl)c3)c(=O)n([C@H]3CC[C@H](NS(C)(=O)=O)CC3)c12` [Example 127, N-{4-[(S)-3-(3-Chloro-phenyl)-7-methoxy-2,4-dioxo-3,4-dihydro-2H-pyrimido[5,4-c]quinolin-1-yl]-trans-cyclohexyl}-methanesulfonamide] the value was 6 nM.
